In patent US20250268873A1, “COMBINATION OF DUAL ATM AND DNA-PK INHIBITORS AND IMMUNOTHERAPEUTIC AGENTS FOR USE IN CANCER THERAPY” (XRAD THERAPEUTICS, INC., priority 2021, published 2025):

What was measured:
TBK1 = test: Immunoblot of TBK1 phosphorylation in HCT116 cells; assay type: cell-based, human; conditions: HCT116 p53 wild-type and p53−/− cells; 1 μM single agents, combination 0.5 or 1 micromolar each
Excerpt: Antibodies recognizing phosphorylated/activated ATM (S1981, #ab81292) and DNA-PKcs (S2056, #ab18192) were purchased from Abcam Biotechnology (Cambridge, MA). Antibodies to ATM (#A1106) and DNA-PKcs (#ab1832) were from Sigma and Abcam, respectively. Phospho-KAP1 (S824, #A300-767A) and KAP1 (A700-014) antibodies were from Bethyl Labs (Montgomery, TX). Phospho-TBK1 (#5483), cGAS (#15102), and pSTING (S366, #19781S) antibodies were from Cell Signaling Technology (CST) (Danvers, MA). STING (PA5-23381) antibodies were from ThermoFisher Scientific (Waltham, MA), and actin (#A5316) antibodies were from Sigma. All antibodies were diluted 1:1000 with the exception of actin which was diluted 1:3000 in 1×TBST (1×TBS-10×TBS, (Corning, 46-012-CM), 0.05% Tween-20 (P7949) Sigma and 1% BSA. Secondary antibodies used were (a) Li-Cor method-Goat anti-Rabbit (926-3221) and Goat anti-Mouse (926-68020) Li-Cor (b) ECL method: Anti-rabbit IgG, HRP-linked (#7074S), CST.
Cells were pretreated with Compound 569 at 20, 100, 500, or 1000 nM or DMSO for 30 min and then irradiated with 0 or 10 Gy (XRAD 160, Precision X Ray) as shown in FIG. 1. In FIG. 3, cells were pretreated with Compound 569 at 1 μM, ATMi (AZD0156) at 1 μM, DNA-PKi (peposertib) at 1 μM as single agents or DMSO or with ATMi and DNA-PKi in combination at 0.5 micromolar each or at 1 micromolar each for 30 min and then irradiated with 0 or 10 Gy (XRAD 160, Precision X Ray) as shown in FIG. 1. One hour after IR, cells were lysed in RIPA buffer ([…], pH 8.0, 150 mM NaCl, 0.1% SDS, 0.5% sodium deoxycholate, 1% IGEPAL® CA-630 (Sigma, 18896) for 20 min at 4° C. in the presence of protease and phosphatase inhibitor cocktails (Roche, #04693159001 & #04906837001). Cell lysates were centrifuged at 13,200 g for 10 min at 4° C. and supernatants were analyzed for protein content using BCA assay (Pierce™ BCA Protein Assay Kit, cat #23227, ThermoFisher Waltham, MA 02451) and equal amounts of protein/lane were used for subsequent immunoblot analyses. Proteins were denatured by adding NuPAGE LSD Sample Buffer [4×] […]

DNA-PK = DNA-PK (Homo sapiens (Human), UniProt P78527); test: Pharmacodynamic assay, pDNA-PK/DNA-PK in FADU tumors; assay type: in vivo; conditions: for pDNA-PK/DNA-PK: FADU tumors
Method: (§1) FADU or MDA-MB-231 cells were harvested during log phase growth for in vivo implantation. The resuspended cells were washed three times in phosphate buffered saline (PBS) before preparing the working dilution in PBS. FADU cells were diluted to 1×10^7 cells/mL and MDA-MB-231 cells were diluted to 5×10^7 cells/mL. Each mouse was injected subcutaneously in the right flank with 100 μL of the cellular suspension. Tumor growth was monitored until the tumors reached a target volume of at least 100 mm^3, at which point mice were randomly stratified into four treatment groups.
(§2) Tumor studies were performed as follows. Mice bearing FADU or MDA-231 tumors were pre-dosed with vehicle alone or compound 569 alone at 3, 6, and 10 mg/kg. Tumors were then irradiated with 10 Gy 45 min after vehicle or compound 569 administration or left unirradiated (vehicle and compound 569 at 10 mg/kg). Tumors were harvested 1 h post radiation.
(§3) Tissue homogenates for pharmacodynamic analyses were collected and processed as follows. Tumor tissues from FADU or MDA-MB-231 tumors were flash frozen in liquid nitrogen and pulverized on dry ice using a tissue pulverizer. A portion of the tumor powder was transferred into a microtube, followed by addition of 500 μL of RIPA buffer [[…], pH 8.0, 150 mM NaCl, 0.1% SDS, 0.5% sodium deoxycholate, 1% IGEPAL® CA-630 (Sigma, I8896)]. To 10 ml of RIPA buffer, 2 tablets each of Protease inhibitor and Phosphatase inhibitor (Roche, #04693159001 & #04906837001), 200 μL of 0.1 M PMSF and 160 μL of Aprotinin, (Sigma, A6279) were added. The suspension was homogenized on ice with a pellet pestle motor (KONTES) and incubated on ice for 30 minutes. Cell lysates were centrifuged at 13,200 rpm for 15 min at 4° C. and supernatants were transferred to a new tube and analyzed for protein concentration with a BCA kit (Pierce, 23227), followed by immunoblotting.

ATM = ATM (Homo sapiens (Human), UniProt Q13315); test: Pharmacodynamic assay, pKAP1/KAP1 in FADU tumors; assay type: in vivo; conditions: for pKAP1/KAP1: FADU tumors
Chain of ATM (Q13315 whole entry): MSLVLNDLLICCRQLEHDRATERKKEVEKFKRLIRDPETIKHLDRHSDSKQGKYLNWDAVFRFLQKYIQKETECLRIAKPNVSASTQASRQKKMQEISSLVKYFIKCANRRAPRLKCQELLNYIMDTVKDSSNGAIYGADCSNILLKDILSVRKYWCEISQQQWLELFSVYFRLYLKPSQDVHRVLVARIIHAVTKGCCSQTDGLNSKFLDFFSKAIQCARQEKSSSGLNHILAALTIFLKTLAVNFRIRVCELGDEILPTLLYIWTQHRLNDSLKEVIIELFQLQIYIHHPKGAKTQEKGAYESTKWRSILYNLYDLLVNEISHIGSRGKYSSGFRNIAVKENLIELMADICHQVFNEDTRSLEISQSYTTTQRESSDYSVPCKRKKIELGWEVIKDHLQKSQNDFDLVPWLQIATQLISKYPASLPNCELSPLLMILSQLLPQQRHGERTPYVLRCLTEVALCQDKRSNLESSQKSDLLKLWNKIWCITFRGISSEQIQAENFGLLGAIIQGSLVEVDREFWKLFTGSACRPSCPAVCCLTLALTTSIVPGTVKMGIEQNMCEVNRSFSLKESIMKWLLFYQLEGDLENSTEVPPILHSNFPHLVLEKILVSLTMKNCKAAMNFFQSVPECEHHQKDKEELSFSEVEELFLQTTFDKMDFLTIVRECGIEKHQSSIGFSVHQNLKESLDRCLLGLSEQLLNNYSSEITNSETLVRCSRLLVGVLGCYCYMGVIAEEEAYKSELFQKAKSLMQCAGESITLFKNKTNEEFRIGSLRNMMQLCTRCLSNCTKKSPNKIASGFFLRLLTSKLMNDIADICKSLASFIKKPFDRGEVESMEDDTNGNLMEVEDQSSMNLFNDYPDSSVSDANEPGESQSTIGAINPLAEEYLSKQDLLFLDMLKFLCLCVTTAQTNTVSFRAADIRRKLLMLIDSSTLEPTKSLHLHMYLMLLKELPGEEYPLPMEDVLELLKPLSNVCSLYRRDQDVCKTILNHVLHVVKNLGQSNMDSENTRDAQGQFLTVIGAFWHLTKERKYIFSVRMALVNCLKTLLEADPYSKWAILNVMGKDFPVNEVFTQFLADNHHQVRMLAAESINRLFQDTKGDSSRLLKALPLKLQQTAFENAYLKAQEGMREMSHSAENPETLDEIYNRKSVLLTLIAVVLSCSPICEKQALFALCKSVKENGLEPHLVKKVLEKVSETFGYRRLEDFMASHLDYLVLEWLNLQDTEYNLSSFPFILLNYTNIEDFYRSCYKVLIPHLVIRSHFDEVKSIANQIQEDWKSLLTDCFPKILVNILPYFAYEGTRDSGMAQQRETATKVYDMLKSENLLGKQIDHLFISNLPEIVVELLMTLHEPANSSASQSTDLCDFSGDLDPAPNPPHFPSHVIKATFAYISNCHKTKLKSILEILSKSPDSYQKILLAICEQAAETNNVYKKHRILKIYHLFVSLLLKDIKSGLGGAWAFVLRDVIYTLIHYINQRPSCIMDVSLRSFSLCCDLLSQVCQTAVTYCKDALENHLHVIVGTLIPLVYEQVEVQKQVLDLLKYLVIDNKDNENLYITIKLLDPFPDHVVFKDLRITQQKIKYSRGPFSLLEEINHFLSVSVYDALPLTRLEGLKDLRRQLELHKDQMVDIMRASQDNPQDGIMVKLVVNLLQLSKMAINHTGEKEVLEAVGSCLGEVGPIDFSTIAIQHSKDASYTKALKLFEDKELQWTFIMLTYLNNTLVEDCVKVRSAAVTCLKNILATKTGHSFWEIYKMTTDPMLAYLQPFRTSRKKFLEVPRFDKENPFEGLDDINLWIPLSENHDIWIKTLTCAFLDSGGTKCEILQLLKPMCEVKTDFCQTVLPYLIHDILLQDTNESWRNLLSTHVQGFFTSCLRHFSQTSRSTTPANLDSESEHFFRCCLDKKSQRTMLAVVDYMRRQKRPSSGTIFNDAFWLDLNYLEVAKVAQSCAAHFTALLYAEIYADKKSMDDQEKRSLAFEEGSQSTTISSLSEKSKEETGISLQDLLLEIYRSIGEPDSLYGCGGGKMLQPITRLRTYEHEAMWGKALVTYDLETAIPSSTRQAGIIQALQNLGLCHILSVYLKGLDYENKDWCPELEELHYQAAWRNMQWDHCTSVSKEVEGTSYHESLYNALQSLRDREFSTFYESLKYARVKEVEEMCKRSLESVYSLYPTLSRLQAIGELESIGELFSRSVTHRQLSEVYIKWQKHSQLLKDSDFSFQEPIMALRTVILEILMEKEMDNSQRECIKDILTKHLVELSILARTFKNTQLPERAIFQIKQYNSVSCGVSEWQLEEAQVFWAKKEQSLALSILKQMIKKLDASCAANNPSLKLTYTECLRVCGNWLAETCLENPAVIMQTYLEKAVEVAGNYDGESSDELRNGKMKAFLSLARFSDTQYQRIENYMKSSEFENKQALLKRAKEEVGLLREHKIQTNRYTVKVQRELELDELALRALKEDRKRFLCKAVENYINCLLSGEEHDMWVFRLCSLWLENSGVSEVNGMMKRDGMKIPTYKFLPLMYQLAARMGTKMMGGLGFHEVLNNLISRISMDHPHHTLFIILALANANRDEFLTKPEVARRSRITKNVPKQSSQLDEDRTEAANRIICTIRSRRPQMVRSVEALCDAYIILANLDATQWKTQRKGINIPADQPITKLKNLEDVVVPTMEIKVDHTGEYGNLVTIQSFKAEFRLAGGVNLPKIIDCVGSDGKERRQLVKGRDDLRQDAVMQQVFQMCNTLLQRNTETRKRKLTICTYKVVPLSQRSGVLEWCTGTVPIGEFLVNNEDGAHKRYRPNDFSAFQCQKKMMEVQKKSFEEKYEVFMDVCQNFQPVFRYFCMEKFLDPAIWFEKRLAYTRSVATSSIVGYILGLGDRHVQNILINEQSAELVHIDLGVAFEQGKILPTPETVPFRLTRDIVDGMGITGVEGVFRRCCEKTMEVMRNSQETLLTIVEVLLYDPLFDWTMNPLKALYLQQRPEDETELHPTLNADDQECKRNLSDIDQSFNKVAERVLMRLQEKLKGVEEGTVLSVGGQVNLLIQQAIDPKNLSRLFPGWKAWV
Method: as §1, §2, §3

Structure (SMILES): CC(C)NCCOc1ncc(-c2cc3c4c(cnc3cc2F)N(C)C(=O)C42CCC2)cc1NS(C)(=O)=O [Compound 569, N-(5-(7′-Fluoro-3′-methyl-2′-oxo-2′,3′-dihydrospiro[cyclobutane-1,1′-pyrrolo[2,3-c]quinolin]-8′-yl)-2-(2-(isopropylamino)ethoxy)pyridin-3-yl)methanesulfonamide]
- phosphorylation of TBK1 (TBK1): more potent activator of TBK1 phosphorylation than either of the single target kinase inhibitors
- inhibition at 10 mg/kg (DNA-PK; 10 mg/kg, 10 Gy, FADU and MDA231 tumors (FIGS. 4 and 5), read-out: inhibition of tumor levels of radiation-induced autophosphorylation of DNA-PK): ~55%
- pDNA-PK/DNA-PK (DNA-PK; 10 Gy, 3 mg/kg oral): 0.938
- pDNA-PK/DNA-PK (DNA-PK; 10 Gy, 6 mg/kg oral): 0.658
- pDNA-PK/DNA-PK (DNA-PK; 10 Gy, 10 mg/kg oral): 0.476
- pDNA-PK/DNA-PK (DNA-PK; no radiation, 10 mg/kg oral): 0.343
- basal phosphorylation of DNA-PK in tumors (DNA-PK; no radiation, 10 mg/kg): inhibited
- inhibition at 10 mg/kg (ATM; 10 mg/kg, 10 Gy, FADU and MDA231 tumors (FIGS. 4 and 5), read-out: inhibition of tumor levels of radiation-induced phosphorylation of KAP1): > 80%
- pKAP1/KAP1 (ATM; 10 Gy, 3 mg/kg oral): 0.0903
- pKAP1/KAP1 (ATM; 10 Gy, 6 mg/kg oral): 0.0982
- pKAP1/KAP1 (ATM; 10 Gy, 10 mg/kg oral): 0.156
- pKAP1/KAP1 (ATM; no radiation, 10 mg/kg oral): 0.00595
